These results are taken from patent publication US20080176952A1, “Management of Ophthalmologic Disorders, Including Macular Degeneration” (priority 2004, published 2008).

SMILES strings stand for the structures.

The subject of assay [1] is mRPE65 / IMH activity in RPE membranes. Briefly: Effect of 11-cis-retinol mediated depalmitoylation of mRPE65 on generation of 11-cis-retinol in RPE membranes. The class given is biochemical, bovine. Conditions: RPE membranes pretreated with 10 μM, then UV and vitamin A. Here is the method:
Effect of 11-cis-retinol mediated depalmitoylation of mRPE65 on the generation of 11-cis-retinol: To 1 mL of buffered suspension of RPE membranes (100 mM Tris pH 8.0, 80 μg of protein) was added 10 μM of 11-cis-retinol and incubated at room temp. for 45 min. A control reaction mixture without 11-cis-retinol was also incubated at room temperature for 45 min. At the end of the 45 min incubation, the reaction mixtures were exposed to UV light (354 nm) for 10 min to destroy the 11-cis-retinoids. All-trains-retinol [11-12-^3H2] (0.1 μM) was then added to the reaction mixtures (100 mM Tris pH 8.0, 80 μg of RPE protein 5% BSA and 0.1 μM all-trans-retinol [11-12-^3H2], and incubated at 37° C. 100 μL aliquot of the reactions were quenched after 0, 5, 10, 15, 20, 30, 45, 60, 90, 120 and 150 min by the addition of 500 μL methanol after which 100 μL of H2O was added, and 500 μl hexane (containing butylated hydroxy toluene at 1 mg/mL) was added to effect extraction of the retinoids. The retinoids were analyzed as previously described (Winston and Rando 1998). The amount of 11-cis-retinol formed was used as a measurement of IMH activity. All experiments were performed in triplicate and the average values of these measurements were used for analysis. […]

Assay [2] has as its target T1, tLRAT (Homo sapiens, UniProt O95237).
T1 construct: This form of LRAT has the two N and C-terminal transmembrane domains of LRAT truncated; made in house
T1 sequence (O95237 31-196 limits assumed): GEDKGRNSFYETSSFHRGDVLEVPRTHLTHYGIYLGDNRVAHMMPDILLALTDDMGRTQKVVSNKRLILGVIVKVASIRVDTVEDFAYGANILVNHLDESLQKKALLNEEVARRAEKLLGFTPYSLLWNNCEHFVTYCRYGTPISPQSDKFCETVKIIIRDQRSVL
The assay can be described thus: Isomeric preference of the mRPE65/tLRAT mediated esterification of retinols. The class given is biochemical. Particulars: compared to vitamin A; 0.02 μM mRPE65, 5 μM tLRAT. Here is the method:
Isomeric preference of the mRPE65/tLRAT mediated esterification of retinols: The effect of mRPE65 on the processing of 11-cis- and all-trans-retinols was determined by monitoring the formation of tLRAT catalyzed retinyl esters from added all-trans-retinol [11,12-^3H2], 11-cis-retinol [15-^3H] and mRPE65. The reaction mixture (volume 0.1 mL) contains 100 mM Tris (pH 8.4), 5 μM of tLRAT 0.3% CHAPS, 1 mM dithiothreitol and 0.2 μM of all-trans-retinol [11,12-^3H2] or 11-cis-retinol [15-^3H] and mRPE65 ([…] 200 μM/0.4% DPPC/BSA was incubated for 10 min at room temperature. After 10 min the reaction was quenched with 500 μL methanol, 100 μL of water and 500 μL of hexane. The amount of retinyl palmitate formed, as determined by normal phase-HPLC, was used as a measure of activity. Each experiment was done in triplicate, and the data points used are an average of these three points. The standard error was presented as error bars.
11-cis-retinol, the direct product of IMH action, is also esterified (FIG. 12A). […] (2) all-trans-retinol (2 μM) and mRPE65 (0.02 μM). (3) 11-cis-retinol (2 μM) and DPPC/BSA (250 μM/0.4%). (4) all-trans-retinol (2 μM) and DPPC/BSA (250 μM/0.4%). All reaction mixtures contain 100 mM Tris pH 8.4, 1 mM dithiothreitol, 1 mM EDTA and 5 μM tLRAT.

For assay [3], the target named is T1, tLRAT. Conditions: comparison value; no observable turnover under the same conditions; read-out: KM as acyl donor in the LRAT reaction; cited from earlier work.
The next assay deals with T2, RPE65 (Bos taurus, UniProt Q28175).
T2 construct: Frozen bovine eyecups devoid of retinas were purchased from W. L. Lawson Co; tissue W. L. Lawson Co; host or cells: bovine eyecups (retinal pigment epithelium)
T2 sequence (Q28175 whole entry): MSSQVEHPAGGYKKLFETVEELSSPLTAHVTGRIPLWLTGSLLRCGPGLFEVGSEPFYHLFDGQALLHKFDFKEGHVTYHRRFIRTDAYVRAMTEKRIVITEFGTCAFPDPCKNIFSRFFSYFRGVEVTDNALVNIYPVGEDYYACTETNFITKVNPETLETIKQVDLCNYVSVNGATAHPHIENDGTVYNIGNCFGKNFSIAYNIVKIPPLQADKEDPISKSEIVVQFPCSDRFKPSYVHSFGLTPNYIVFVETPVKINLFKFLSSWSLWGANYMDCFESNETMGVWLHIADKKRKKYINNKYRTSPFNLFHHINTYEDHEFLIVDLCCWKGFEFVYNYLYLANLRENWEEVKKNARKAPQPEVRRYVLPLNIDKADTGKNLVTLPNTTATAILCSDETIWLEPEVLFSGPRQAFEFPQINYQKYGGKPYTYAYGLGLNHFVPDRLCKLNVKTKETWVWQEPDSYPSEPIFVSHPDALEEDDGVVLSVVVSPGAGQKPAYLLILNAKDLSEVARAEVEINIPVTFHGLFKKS
Briefly: Competitive binding with 3H-all-trans-retinyl palmitate to RPE65 (buffer exchange). The arrangement: species or system bovine. Particulars: 6 μM retinoic acid, 0.5 μM RPE65, 0.65 μM 3H-all-trans-retinyl palmitate. How it is done: Competitive binding of retinoic acid (all-trans and 13-cis) and all-trans-retinyl palmitate to RPE65: Buffer exchange experiments were performed to investigate the abilities of the retinoic acids (all-trans and 13-cis) to displace all-trans-retinyl palmitate binding from RPE65. To RPE65 (0.5 μM) (PBS, 1% CHAPS, pH 7.4), was added 6 μM of retinoic acid (all-trans and 13-cis) and incubated at 4° C. for 30 min. A control sample of RPE65 was incubated minus retinoic acids at 4° C. for 30 min. At the end of this incubation, the samples were incubated for 30 min with ^3H-all-trans-retinyl palmitate (0.65 ∥M, 20.31. Ci/mmol). At the end of this incubation period the buffer (PBS-1% CHAPS) was exchanged 10^4 fold with a Centricon 30K MWCO filter. The sample retained and the buffer flow through were counted on a liquid scintillation counter, to measure the amount of ^3H-all-trans-retinyl palmitate retained.
Competitive binding of retinoic acid (all-trans and 13-cis) and all-trans-retinyl palmitate to RPE65: Buffer exchange experiments were performed to investigate the abilities of the retinoic acids (all-trans and 13-cis) to displace all-trans-retinyl palmitate binding from RPE65. […] The sample retained and the buffer flow through were counted on a liquid scintillation counter, to measure the amount of ^3H-all-trans-retinyl palmitate retained. […]

Assay [4] concerns 11-cis-retinol biosynthesis (IMH activity) in retinal pigment epithelial membrane system. Briefly: Effect on 11-cis-retinol biosynthesis (IMH activity) in RPE membranes. The class given is biochemical, bovine. Conditions: membranes pre-incubated with vitamin A before inhibitor; 60 μM; data not shown. Here is the method:
A control reaction mixture without any inhibitor was also incubated at room temperature for 15 min. At the end of the min incubation, all-trans-retinol [11-12-^3H2] (0.2 μM) was added to the reaction mixtures (100 mM Tris pH 8.0, […] of RPE protein, 0.2% BSA 100 μM of DPPC, 1 mM of DTT and 0.2 μM all-trans-retinol [11-12-^3H2]) and incubated at room temperature for 30 min. At the end of this 30 minutes of incubation, an aliquot of the reactions were quenched to verify the equal addition of all-trans-retinol [11,12-^3H2] and the effect of these inhibitors on LRAT. After this the control reaction mixture was incubated with atRA (60 & 6 μM), 13cRA (60 & 6 μM) or 4-HPR (60 & 6 μM) for 15 min. Now all the reaction mixtures were incubated with 30 μM of apo-rCRALBP (100 mM Tris pH 8.0, 7.7 μg of RPE protein, 0.2% BSA 100 μM of DPPC, 1 mM of DTT 30 μM apo-rCRALBP and 0.2 μM all-trans-retinol [11-12-^3H2]) at 37° C. for 30 minutes. At the end of this incubation period the 200 μL reaction mixture was quenched by the addition of 750 μL ice cold methanol after which 100 μL of 1M sodium chloride solution was added, and 500 μl hexane (containing butylated hydroxy toluene at 1 mg/mL) was added to effect extraction of the retinoids. The retinoids were analyzed as previously described (27). The amount of 11-cis-retinol formed was used as a measurement of IMH activity. All experiments were performed in triplicate and the average values of these measurements were used for analysis.
A control reaction mixture without any inhibitor was also incubated at room temperature for 15 min. At the end of the min incubation, all-trans-retinol [11-12-^3H2] (0.2 μM) was added to the reaction mixtures (100 mM Tris pH 8.0, 76.7 μg of RPE protein, 0.2% BSA 100 μM of DPPC, 1 mM of DTT and 0.2 μM all-trans-retinol [11-12-^3H2]) and incubated at room temperature for 30 min. […] The retinoids were analyzed as previously described (27). […]

For `CC1=C(/C=C/C(C)=C/C=C\C(C)=C\CO)C(C)(C)CCC1` [11-cis-retinol], in assay [1], the “effect of pretreatment on 11-cis-retinol synthesis” value is “distinct lag period before product synthesis occurs”. At tLRAT [2], the “substrate preference in tLRAT/mRPE65 mediated esterification (palmitoylation)” value was “superior substrate”.
Regarding `CCCCCCCCCCCCCCCC(=O)OC[C@H](COP(=O)([O-])OCC[N+](C)(C)C)OC(=O)CCCCCCCCCCCCCCC` [DPPC, dipalamitoyl phosphatidylcholine], the Michaelis constant (Km) on tLRAT [3] was 1400 nM.
With `CC1=C(/C=C/C(C)=C/C=C/C(C)=C/C(=O)O)C(C)(C)CCC1` [all-trans-retinoic acid], the “competition with 3H-all-trans-retinyl palmitate binding to RPE65” value at RPE65 is given as “competes with the binding”. Also, the “inhibition of 11-cis-retinol formation” value in assay [4] is “not susceptible to inhibition”.

The Km is the substrate concentration at which the rate is half of its maximum.
